Test results: patent publication US8853246B2 (Dow AgroSciences LLC, priority 2009, dated 2014)
Like-named read-outs stand apart in the source and are kept apart here.

How the values were obtained:
[1] = test system: Green Peach Aphid (Myzus Persicae); experiment: Insecticidal test for green peach aphid in foliar spray assay (col. MYZUPE); assay type: in vivo; settings: for pest or weed control at 200 ppm: Myzus persicae, 72 h, read-out: MYZUPE 200 ppm (Corrected % Control, rating)
Procedure, shortened: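 Corrected % control derives from microscope counts of live aphids per plant, treated against diluent-only checks, 3 days after foliar spraying at ~25 °C and 40% RH. Test solution was 200 ppm in 0.025% aqueous Tween 20, applied to both leaf sides of infested cabbage seedlings, four pots each.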

[2] = test system: Sweetpotato Whitefly-Crawler (Bemisia Tabaci); experiment: Insecticidal test for sweetpotato whitefly-crawler in foliar spray assay (col. BEMITA); assay type: in vivo; settings: for pest or weed control at 200 ppm: Bemisia tabaci, read-out: BEMITA 200 ppm (Corrected % Control, rating)
Procedure, shortened: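 Percent control, Abbott-corrected against diluent-sprayed plants, from microscope counts of live nymphs 8-9 days after treatment. Test solution at 200 ppm in 0.025% aqueous Tween 20 applied to both leaf sides of egg-infested cotton after a 5-6 day hatch period (82° F, 50% RH).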

| Structure (SMILES) | pest or weed control at 200 ppm ([1]; green peach aphid) [%] | pest or weed control at 200 ppm ([2]; sweetpotato whitefly-crawler) [%] | other results |
| --- | --- | --- | --- |
| CCN(C(=O)c1ccsc1)c1sc(-c2cccnc2)nc1Cl [Compound 527] |  |  | pest or weed control at 200 ppm ([1]; Abbott's correction formula): < 80%; pest or weed control at 200 ppm ([2]; Abbott's correction formula): 80 to 100% |
| CSCC(C)C(=O)N(C(=O)C(C)CSC)c1sc(-c2cncc(F)c2)nc1C (stereo not shown) [Compound 188] | 80 to 100 | 80 to 100 |  |
| CSCC(C)C(=O)N(C)c1sc(-c2cccnc2)nc1C(C)C (stereo not shown) [Compound 60] | < 80 | < 80 |  |
| CN(C(=O)c1ccoc1)c1sc(-c2cccnc2)nc1Cl [Compound 401] |  |  | MYZUPE 200 ppm (Corrected % Control, rating) ([1]; green peach aphid): A (80-100); BEMITA 200 ppm (Corrected % Control, rating) ([2]; sweetpotato whitefly-crawler): A (80-100) |
| CCN(C(=O)CCSC(C)C)c1sc(-c2cccnc2)nc1C [Compound 323] | 80 to 100 | < 80 |  |
| CCN(C(=O)OC(C)(C)C)c1sc(-c2cccnc2)nc1Cl [Compound 304, (4-chloro-2-pyridin-3-yl-thiazol-5-yl)-ethyl-carbamic Acid Tert-Butyl Ester] | 80 to 100 | 80 to 100 |  |
| Cc1nc(-c2cccnc2)sc1N(C)C(=O)c1cscn1 [Compound 365] | 80 to 100 | < 80 |  |
| Cc1nc(-c2cccnc2)sc1N1CCCC1=O [Compound 211] | 80 to 100 | 80 to 100 |  |
| CSCC(C)C(=O)Nc1sc(-c2cccnc2)nc1C(F)(F)F (stereo not shown) [Compound 134] | 80 to 100 | < 80 |  |
| CN(C(=O)CC[S+](C)[O-])c1cnc(-c2cncc(F)c2)s1 (stereo not shown) [Compound 78, N-[2-(5-fluoropyridin-3-yl)-thiazol-5-yl]-3-methanesulfinyl-N-methyl-propionamide] | 80 to 100 | < 80 |  |
| Cc1nc(-c2cccnc2)sc1N(C)C(=O)[C@H](Cc1ccccc1)NC(=O)OC(C)(C)C [Compound 280] | < 80 | < 80 |  |
| Cc1nc(-c2cncc(F)c2)sc1NC(=O)C(C)CS(C)(=O)=NC#N (stereo not shown) [Compound 164, 3-[cyano(methyl)sulfonimidoyl]-N-[2-(5-fluoropyridin-3-yl)-4-methyl-1,3-thiazol-5-yl]-2-methylpropanamide] | 80 to 100 | < 80 |  |
| CCC(C)NC(=O)N(C)c1cnc(-c2cncc(F)c2)s1 (stereo not shown) [Compound 73, 3-sec-Butyl-1-[2-(5-fluoropyridin-3-yl)-thiazol-5-yl]-1-methyl-urea] | 80 to 100 | 80 to 100 |  |
| Cc1nc(-c2cccnc2)sc1N(C)C(=O)CC[S+](C)[O-] (stereo not shown) [Compound 90] | 80 to 100 | 80 to 100 |  |
| CSCC(C)C(=O)N(C(=O)OC(C)(C)C)c1sc(-c2cncc(S(C)(=O)=O)c2)nc1C (stereo not shown) [Compound 157] | < 80 | < 80 |  |
| C/C=C/CN(C(=O)OC(C)(C)C)c1sc(-c2cccnc2)nc1C [Compound 463] |  |  | pest or weed control at 200 ppm ([1]; Abbott's correction formula): < 80%; pest or weed control at 200 ppm ([2]; Abbott's correction formula): < 80% |
| Cc1nc(C)n(CC(C)C(=O)Nc2sc(-c3cccnc3)nc2C)n1 (stereo not shown) [Compound 332] | 80 to 100 | < 80 |  |
| CCCCN1CCCC(C(=O)N(C)c2sc(-c3cncc(F)c3)nc2C)C1 (stereo not shown) [Compound 587] |  |  | pest or weed control at 200 ppm ([1]; Abbott's correction formula): 80 to 100%; pest or weed control at 200 ppm ([2]; Abbott's correction formula): 80 to 100% |
| CCN(C(=O)CC[S+](C)[O-])c1sc(-c2cncc(F)c2)nc1C (stereo not shown) [Compound 256] | 80 to 100 | 80 to 100 |  |
| CSCCC(=O)N(C(=O)CCSC)c1sc(-c2cncc(F)c2)nc1C [Compound 185] | 80 to 100 | 80 to 100 |  |
| CN(C(=O)C(F)(F)F)c1cnc(-c2cccnc2)s1 [Compound 2, 2,2,2-Trifluoro-N-methyl-N-(2-pyridin-3-yl-thiazol-5-yl)-acetamide] | < 80 | < 80 |  |
| CSC(C)C(C)C(=O)N(C)c1sc(-c2cccnc2)nc1Cl (stereo not shown) [Compound 516] |  |  | pest or weed control at 200 ppm ([1]; Abbott's correction formula): 80 to 100%; pest or weed control at 200 ppm ([2]; Abbott's correction formula): < 80% |
| Cc1nc(-c2cccnc2)sc1NC(=O)C1CCN1C(=O)OC(C)(C)C (stereo not shown) [Compound 337] | < 80 | 80 to 100 |  |
| Cc1nc(-c2cccnc2)sc1N(C)C(=O)c1cccc(SC(F)F)c1 [Compound 397] | 80 to 100 | 80 to 100 |  |
| CSCCC(=O)N(C)c1sc(-c2cncc(F)c2)nc1C [Compound 38] | 80 to 100 | 80 to 100 |  |
| CC(C[S+](C)[O-])C(=O)N(C)c1sc(-c2cccnc2)nc1C(F)(F)F (stereo not shown) [Compound 89] | < 80 | 80 to 100 |  |
